Source: US6676950B2, “Neurokinin receptor antagonists and methods of use thereof for inhibiting HIV infection” (The Children's Hospital of Philadelphia, priority 2001, dated 2004)

Tests used:
[1] = system: luciferase-encoding HIV virions pseudotyped with MLV Env (CCR5-independent); assay: Pseudotype reporter virus entry assay, MLV Env; format: cell-based
Experimental: Pseudotype reporter virus entry assay: Recombinant luciferase-encoding HIV virions pseudotyped with Env from the M-tropic ADA (CCR5-dependent) and amphitropic murine leukemia virus (MLV) (CCR5-independent) were used to study HIV infection of MDM incubated with or without CP-96,345 or R-113281. The Env-deleted luciferase reporter plasmid PNL-Luc-E-R+ (kindly provided by N. Landau) was cotransfected into 293T cells along with plasmids encoding the ADA or MLV Env genes as previously described (31). Supernatants were collected 48 h later, assayed for p24^Gag antigen content, and frozen at −80° C. MDM (2.5×10^5 cells/well, in 48-well plates) were incubated overnight with or without CP-96,345 or R-113281 and then infected using 20 ng of p24^Gag antigen equivalent of each pseudotype HIV per well, in the presence of polybrene (7.5 μg/ml). At 72 h postinfection, the cells were lysed in 150 μl of 0.5% Triton-X-100 in PBS. Lysate (50 μl) was mixed with an equal volume of luciferase substrate (Promega, […].) and luciferase activity was determined in a microtiter plate luminometer (Dynex Technologies, Chantilly, Va.). The results were expressed as relative light units (RLU) in CP-96,345-treated or R-113281-treated and infected MDM as a percentage of that in untreated and infected MDM.

HIV LTR promoter = assay: HIV LTR-driven CAT activity assay in U38 cells; format: cell-based
Source text: ACH-2 and U38 cell lines (25, 26) were obtained from the NIH AIDS Reagent Program. DNA extracted from ACH-2 cells was used as a positive standard for HIV DNA PCR as previously reported (27). The U38 cell line contains stably integrated, silent copies of the HIV LTR (long terminal repeat) promoter linked to a CAT (chloramphenicol acetyltransferase) gene and was used to study the effect of SP and/or CP-96,345 and R-113281 on the activation of HIV LTR promoter.
Chloramphenicol acetyltransferase (CAT) activity assay: U38 cells (2×10^6 cells) were incubated with different concentrations of SP and/or CP-96,345 or R-113281 for 48 h. Untreated U38 cells were used as a background control. Cellular proteins were extracted using 1X Reporter Lysis Bufffer (Promega Corp., Madison, Wis.). The lysates were incubated with a mixture containing 0.15 μCi of ^14C-labeled chloramphenicol (DuPont Inc., Boston, Mass.) and 200 μg/ml of n-Butyryl CoA (Promega Corp., Madison, Wis.) in a total volume of 125 μl at 37° C. for 3 h. The acetylated forms of chloramphenicol were extracted with xylene (Aldrich Chemical Company, Milwaukee, Wis.). CAT activity of each sample was quantified using a liquid-scintillation counter (Packard Instrument Company, Downers Grove, Ill.). The results were expressed as the ratio of CAT activity (CPM) of the SP and/or CP-96,345-treated or R-113281-treated U38 to that of the background control.

R5X4 strain (89.6) = assay: HIV RT activity in MDM infected with R5X4 strain; format: cell-based; details: 8 days after infection
Experimental: Based upon their differential use of the major HIV co-receptors, HIV isolates have been referred to as R5, X4 or R5X4 strains, respectively (29). The M-tropic (macrophage-tropic) R5 prototype strains (Bal and ADA), dual tropic strain (89.6) and X4 primary isolate (UG024), were obtained from the NIH AIDS Reagent Program. Primary M-tropic isolates (BL-6 and CSF-6) were isolated from the blood and cerebrospinal fluid cells, respectively, of a subject with AIDS. […] The cells were also incubated with SP and/or anti-SP antibody. In this case, SP was incubated with (1:1000 dilution in 10% FCS DMEM) or without anti-SP antibody at room temperature for 10 min and then the mixture was added to the cell cultures for 2 h. When the cells were treated with the combination of CP-96,345 and SP, or CP-96,345, SP and anti-SP antibody, CP-96,345 was incubated with the cell culture for 10 min and then SP was added to the MDM or CP-96,345, SP and anti-SP (1:1000 in 10% FCS DMEM) were incubated for 10 min at room temperature and the mixture was incubated with the MDM for 2 h before infection with HIV. Untreated MDM served as controls. The cells were treated prior to, during, and throughout the infection. […]

HIV Bal strain = assay: HIV RT activity in culture supernatants of HIV Bal strain-infected MDM; format: cell-based, HIV-1
Experimental: The cells were also incubated with SP and/or anti-SP antibody. In this case, SP was incubated with (1:1000 dilution in 10% FCS DMEM) or without anti-SP antibody at room temperature for 10 min and then the mixture was added to the cell cultures for 2 h. When the cells were treated with the combination of CP-96,345 and SP, or CP-96,345, SP and anti-SP antibody, CP-96,345 was incubated with the cell culture for 10 min and then SP was added to the MDM or CP-96,345, SP and anti-SP (1:1000 in 10% FCS DMEM) were incubated for 10 min at room temperature and the mixture was incubated with the MDM for 2 h before infection with HIV. Untreated MDM served as controls. The cells were treated prior to, during, and throughout the infection.
HIV Infection: After 2 h incubation with or without the reagents described above, the cells were infected with equal amounts of cell-free HIV based on p24 antigen content (20 ng/10^6 cells) overnight, and then washed to remove unbound virus. Fresh media containing SP and/or CP-96,345 or anti-SP antibody were added to the MDM as described above. The culture media and the reagents were replaced twice weekly. The culture supernatants were harvested for HIV reverse transcriptase (RT) activity determinations. After HIV infection, the MDM were incubated for 8 to 12 days. At the termination of the experiments, cellular RNA was extracted for assessment of HIV gag gene expression using RT-PCR or real time RT-PCR assays.
The HIV RT activity assay was carried out based on the technique of Willey et al. (30) with modification (22).

SMILES | MLV Env-pseudotyped HIV infection of MDM (luciferase activity) ([1]; CP-96,345 10^−8 and 10^−7 M overnight pretreatment) | effect on SP activation of HIV LTR-driven CAT activity (HIV LTR promoter; SP 10^−8M plus CP-96,345 10^−6M, 48 h) | replication of R5X4 strain 89.6 (HIV RT activity) (R5X4 strain (89.6); CP-96,345 10^−7M) | viral replication as determined by HIV RT activity (HIV Bal strain; 10^−7M, 8 days after infection, vs HIV infection control) | effect on SP-enhanced HIV replication in MDM (HIV RT activity and HIV gag mRNA levels) (HIV Bal strain; SP 10^−6M, CP-96,345 10^−6M, anti-SP antibody 1:1000 dilution, 12 days after infection) | HIV replication relative to HIV infection control (HIV Bal strain; in presence of SP 10^−6M, CP-96,345 10^−6M and/or anti-SP antibody 1:1000, 12 days) | MLV-Env pseudotyped HIV infection of MDM (luciferase activity) ([1]; R-113281 10^−7 and 10^−6 overnight pretreatment) | effect on SP activation of HIV LTR-driven CAT activity (HIV LTR promoter; SP (10^−8M) plus R-113281 (10^−6M), 48 hours) | replication of R5X4 strain (HIV RT activity) (R5X4 strain (89.6); R-113281 10^−6 M) | HIV RT activity (HIV Bal strain; MDM treated 2 hours, HIV-1 M-tropic strain Bal, day 8 post-infection)
COc1ccccc1CN[C@H]1C2CCN(CC2)[C@H]1C(c1ccccc1)c1ccccc1 [CP-96,345, [2S,3S)-cis-2-(diphenylmethyl)-N-[(2-methoxyphenyl)-methyl]-1-azabicyclo [[2.2.2]-octan-3-amine]] | failed to block | abrogated | inhibited to a lesser extent | inhibited | abrogated | down-regulated HIV replication to a level that was even lower than that of the HIV infection control | – | – | – | –
COc1cc(C(=O)N2CCO[C@](CCN3CCC4(CC3)c3ccccc3C[S@+]4[O-])(c3ccc(Cl)c(Cl)c3)C2)cc(OC)c1OC.Cl [R-113281] | – | – | – | – | – | – | failed to block | abrogated | inhibited to a lesser extent | significantly reduced
